According to patent US20230304010A1, “COMPOSITIONS AND METHODS FOR TREATING VIRAL INFECTIONS” (priority 2020, published 2023):
“And” between values parts separate entries of the source, which are not always exact repeats. Equal entries are not always repeated. Where two headings read alike, the source gives them in different places. Ends that are not written are not given here. Peptide text beside a SMILES is read from it.

Legend:
[1] = target: ACE2:SARS-CoV-2 Spike interaction (UniProt P0DTC2+Q9BYF1); experiment: biochemical; assay type: binding
Sequence of ACE2:SARS-CoV-2 Spike interaction (Q9BYF1 18-740, one chain of several): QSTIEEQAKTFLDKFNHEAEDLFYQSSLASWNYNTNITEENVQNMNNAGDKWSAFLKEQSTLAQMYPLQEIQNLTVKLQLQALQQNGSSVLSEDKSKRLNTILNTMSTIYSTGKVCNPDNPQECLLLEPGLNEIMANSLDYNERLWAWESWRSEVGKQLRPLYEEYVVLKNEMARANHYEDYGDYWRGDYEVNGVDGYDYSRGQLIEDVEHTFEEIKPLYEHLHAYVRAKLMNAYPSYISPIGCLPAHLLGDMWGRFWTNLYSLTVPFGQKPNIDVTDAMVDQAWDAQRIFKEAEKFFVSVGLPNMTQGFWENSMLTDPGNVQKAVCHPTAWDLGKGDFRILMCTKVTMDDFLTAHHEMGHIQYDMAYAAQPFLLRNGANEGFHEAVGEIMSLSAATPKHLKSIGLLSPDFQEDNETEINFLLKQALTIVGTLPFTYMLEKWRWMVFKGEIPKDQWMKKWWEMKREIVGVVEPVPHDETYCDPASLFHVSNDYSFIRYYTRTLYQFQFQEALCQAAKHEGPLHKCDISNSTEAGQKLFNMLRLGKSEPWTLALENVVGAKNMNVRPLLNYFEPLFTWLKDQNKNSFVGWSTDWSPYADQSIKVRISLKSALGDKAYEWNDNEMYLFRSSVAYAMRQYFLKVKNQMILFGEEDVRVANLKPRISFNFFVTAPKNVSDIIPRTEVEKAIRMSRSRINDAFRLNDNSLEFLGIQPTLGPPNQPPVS

[2] = target: SARS-CoV-2 Spike: ACE2 interaction (UniProt P0DTC2+Q9BYF1); experiment: biochemical; assay type: binding
Sequence of SARS-CoV-2 Spike: ACE2 interaction (Q9BYF1 18-740, one chain of several): as above

[3] = Nanoparticle formation of peptides with ADGN-106: mean size and polydispersity (Zetasizer); assay type: physicochemical; conditions: 25° C.; for Mean Size (nm): peptide/ADGN-106 complexes; for PI: polydispersity index of peptide/ADGN-106 complexes
Source text: We then tested the ability of the different peptides to form nanoparticle organization in the presence of ADGN-106 or ADGN-100 peptide. […] Peptides were complexed with 5 or 10 molar excess of ADGN-106.

[4] = read-out: ACE2:SARS-CoV-2 Spike IC50
[5] = read-out: SARS-CoV-2 Spike:ACE2 IC50
[6] = IC50, block of ACE2:SARS-CoV-2 Spike interaction
[7] = IC50, block of SARS-CoV-2 Spike: ACE2 interaction

Ac-EQAKTFLDKFNHEAEDLFPKWSAFLKEQSTLAQMYG [Seq27]
folds more potent than SBP-1-ADGN-106/ADGN-106 complex [1]: 6 folds
folds more potent than SBP-1 coupled to ADGN-106 [1]: 6 folds
folds more potent than SBP-1 peptide/ADGN-106 complex [1]: 40 folds
folds more potent than free SBP-1 [1]: 15 folds
folds more potent than SBP-1-ADGN-106/ADGN-106 complex [2]: 4 folds
folds more potent than SBP-1 coupled to ADGN-106 [2]: 3.5 folds
folds more potent than SBP-1 peptide/ADGN-106 complex [2]: 35 folds
folds more potent than free SBP-1 [2]: 7 folds
Mean Size (nm) [3]: 62.1 ± 10 nm
PI [3]: 0.21

CC(=O)N[C@@H](CCCCN)C(=O)N[C@H](C(=O)N[C@@H](Cc1ccccc1)C(=O)N[C@@H](CC(C)C)C(=O)N[C@@H](CC(=O)O)C(=O)N[C@@H](CCCCN)C(=O)N[C@@H](Cc1ccccc1)C(=O)N[C@@H](CC(N)=O)C(=O)N[C@@H](Cc1c[nH]cn1)C(=O)N[C@@H](CCC(=O)O)C(=O)N[C@@H](C)C(=O)N[C@@H](CCC(=O)O)C(=O)N[C@@H](CC(=O)O)C(=O)N[C@@H](CC(C)C)C(=O)N[C@@H](Cc1ccccc1)C(=O)N[C@@H](Cc1ccc(O)cc1)C(=O)N[C@@H](CO)C(=O)NCCCCCC(=O)N[C@@H](CC(C)C)C(=O)N[C@@H](Cc1c[nH]c2ccccc12)C(=O)N[C@@H](CCCNC(=N)N)C(=O)N[C@@H](C)C(=O)N[C@@H](CC(C)C)C(=O)N[C@@H](Cc1c[nH]c2ccccc12)C(=O)N[C@@H](CCCNC(=N)N)C(=O)N[C@@H](CC(C)C)C(=O)N[C@@H](Cc1c[nH]c2ccccc12)C(=O)N[C@@H](CCCNC(=N)N)C(=O)N[C@@H](CO)C(=O)N[C@@H](CC(C)C)C(=O)N[C@@H](Cc1c[nH]c2ccccc12)C(=O)N[C@@H](CCCNC(=N)N)C(=O)N[C@@H](CC(C)C)C(=O)N[C@@H](CC(C)C)C(=O)N[C@@H](Cc1c[nH]c2ccccc12)C(=O)N[C@@H](CCCCN)C(N)=O)[C@@H](C)O [Seq35]
IC50 ([1]; ACE2:SARS-CoV-2 Spike IC50): 0.728 µM
IC50 ([2]; SARS-CoV-2 Spike:ACE2 IC50): 0.546 µM
Mean Size (nm) [3]: 44 ± 10 nm
PI [3]: 0.22

CSCC[C@H](NC(=O)[C@H](CCC(N)=O)NC(=O)[C@H](C)NC(=O)[C@H](CC(C)C)NC(=O)[C@@H](NC(=O)[C@H](CO)NC(=O)[C@H](CCC(N)=O)NC(=O)[C@H](CCC(=O)O)NC(=O)[C@H](CCCCN)NC(=O)[C@H](CC(C)C)NC(=O)[C@H](Cc1ccccc1)NC(=O)[C@H](C)NC(=O)[C@H](CO)NC(=O)[C@H](Cc1c[nH]c2ccccc12)NC(=O)[C@H](CCCCN)NC(=O)[C@@H]1CCCN1C(=O)[C@H](Cc1ccccc1)NC(=O)[C@H](CC(C)C)NC(=O)[C@H](CC(=O)O)NC(=O)[C@H](CCC(=O)O)NC(=O)[C@H](C)NC(=O)[C@H](CCC(=O)O)NC(=O)[C@H](Cc1c[nH]cn1)NC(=O)[C@H](CC(N)=O)NC(=O)[C@H](Cc1ccccc1)NC(=O)[C@H](CCCCN)NC(=O)[C@H](CC(=O)O)NC(=O)[C@H](CC(C)C)NC(=O)[C@H](Cc1ccccc1)NC(=O)[C@@H](NC(=O)[C@H](CCCCN)NC(C)=O)[C@@H](C)O)[C@@H](C)O)C(=O)N[C@@H](Cc1ccc(O)cc1)C(=O)NCC(=O)NCCCCCC(=O)N[C@@H](CC(C)C)C(=O)N[C@@H](Cc1c[nH]c2ccccc12)C(=O)N[C@@H](CCCNC(=N)N)C(=O)N[C@@H](C)C(=O)N[C@@H](CC(C)C)C(=O)N[C@@H](Cc1c[nH]c2ccccc12)C(=O)N[C@@H](CCCNC(=N)N)C(=O)N[C@@H](CC(C)C)C(=O)N[C@@H](Cc1c[nH]c2ccccc12)C(=O)N[C@@H](CCCNC(=N)N)C(=O)N[C@@H](CO)C(=O)N[C@@H](CC(C)C)C(=O)N[C@@H](Cc1c[nH]c2ccccc12)C(=O)N[C@@H](CCCNC(=N)N)C(=O)N[C@@H](CC(C)C)C(=O)N[C@@H](CC(C)C)C(=O)N[C@@H](Cc1c[nH]c2ccccc12)C(=O)N[C@@H](CCCCN)C(N)=O [Seq40]
increase of potency/efficiency by covalent coupling to ADGN peptide [1]: 1.4 folds
IC50 ([1]; ACE2:SARS-CoV-2 Spike IC50): 0.0854 ± 0.012 µM
IC50 ([2]; SARS-CoV-2 Spike:ACE2 IC50): 0.0451 µM
Mean Size (nm) [3]: 54.5 ± 14 nm
PI [3]: 0.31

Ac-S*KVGGNYNYLY*R-Ava/Ahx-LWRALWRLWRSLWRLLWK-NH2 [Seq12]
blocked ACE2:SARS-CoV-2 Spike interaction [1]: blocked
Mean Size (nm) [3]: 35.4 ± 5 nm
PI [3]: 0.21

CC(C)C[C@H](NC(=O)[C@@H]1CCCN1C(=O)[C@H](Cc1ccccc1)NC(=O)[C@@H](N)Cc1ccc(O)cc1)C(=O)N[C@@H](CCC(N)=O)C(=O)N[C@@H](CO)C(=O)N[C@@H](Cc1ccc(O)cc1)C(=O)NCC(=O)N[C@@H](Cc1ccccc1)C(=O)N[C@@H](CCC(N)=O)C(=O)N1CCC[C@H]1C(=O)N[C@H](C(=O)N[C@@H](CC(N)=O)C(=O)NCC(=O)N[C@H](C(=O)NCC(=O)N[C@@H](Cc1ccc(O)cc1)C(=O)N[C@@H](CCC(N)=O)C(=O)O)C(C)C)[C@@H](C)O [Seq8]
IC50 ([1]; ACE2:SARS-CoV-2 Spike IC50): > 10 µM
IC50 ([2]; SARS-CoV-2 Spike:ACE2 IC50): > 10 µM

Ac-T*EYQAGSTK*Ava-LWRALWRLWRSLWRLLWK-NH2 [Seq16]
IC50 [1, 4]: > 10 µM
IC50 [2, 5]: > 1 µM
Mean Size (nm) [3]: 44.2 ± 7 nm
PI [3]: 0.28

CC(C)C[C@H](NC(=O)[C@H](CCCNC(=N)N)NC(=O)[C@H](Cc1ccc(O)cc1)NC(=O)[C@H](CC(C)C)NC(=O)[C@H](Cc1ccc(O)cc1)NC(=O)[C@H](CC(N)=O)NC(=O)[C@H](Cc1ccc(O)cc1)NC(=O)[C@H](CC(N)=O)NC(=O)CNC(=O)CN)C(=O)N[C@@H](Cc1ccccc1)C(=O)N[C@@H](CCCNC(=N)N)C(=O)N[C@@H](CCCCN)C(=O)O [Seq4]
IC50 ([1]; ACE2:SARS-CoV-2 Spike IC50): > 10 µM
IC50 ([2]; SARS-CoV-2 Spike:ACE2 IC50): > 10 µM

CC(C)C[C@H](NC(=O)[C@H](Cc1ccc(O)cc1)NC(=O)[C@H](CC(N)=O)NC(=O)[C@H](Cc1ccc(O)cc1)NC(=O)[C@H](CC(N)=O)NC(=O)CNC(=O)CNC(=O)[C@@H](NC(=O)[C@H](CCCCN)NC(=O)[C@@H](N)CO)C(C)C)C(=O)N[C@@H](Cc1ccc(O)cc1)C(=O)N[C@@H](CCCNC(=N)N)C(=O)O [Seq1]
IC50 ([1]; ACE2:SARS-CoV-2 Spike IC50): > 10 µM
IC50 ([2]; SARS-CoV-2 Spike:ACE2 IC50): > 10 µM

TNGVGYQPY [Seq11]
IC50 ([1]; ACE2:SARS-CoV-2 Spike IC50): > 1 µM
IC50 ([2]; SARS-CoV-2 Spike:ACE2 IC50): > 1 µM

CC[C@H](C)[C@H](NC(=O)[C@H](CCCNC(=N)N)NC(=O)[C@H](Cc1ccccc1)NC(=O)[C@H](CC(=O)O)NC(=O)CNC(=O)[C@H](CCCCN)NC(=O)CNC(=O)[C@H](CC(C)C)NC(=O)[C@H](CC(=O)O)NC(=O)[C@H](Cc1c[nH]c2ccccc12)NC(=O)[C@H](C)NC(=O)[C@@H](NC(C)=O)[C@@H](C)O)C(=O)NCCCCCC(=O)N[C@@H](CC(C)C)C(=O)N[C@@H](Cc1c[nH]c2ccccc12)C(=O)N[C@@H](CCCNC(=N)N)C(=O)N[C@@H](C)C(=O)N[C@@H](CC(C)C)C(=O)N[C@@H](Cc1c[nH]c2ccccc12)C(=O)N[C@@H](CCCNC(=N)N)C(=O)N[C@@H](CC(C)C)C(=O)N[C@@H](Cc1c[nH]c2ccccc12)C(=O)N[C@@H](CCCNC(=N)N)C(=O)N[C@@H](CO)C(=O)N[C@@H](CC(C)C)C(=O)N[C@@H](Cc1c[nH]c2ccccc12)C(=O)N[C@@H](CCCNC(=N)N)C(=O)N[C@@H](CC(C)C)C(=O)N[C@@H](CC(C)C)C(=O)N[C@@H](Cc1c[nH]c2ccccc12)C(=O)N[C@@H](CCCCN)C(N)=O [Seq36]
IC50 ([1]; ACE2:SARS-CoV-2 Spike IC50): > 1 µM
IC50 ([2]; SARS-CoV-2 Spike:ACE2 IC50): > 1 µM

Ac-K*VGGNYNYK*-Ava-LWRALWRLWRSLWRLLWK-NH2 [Seq13]
IC50 [1, 4]: > 10 µM
IC50 [2, 5]: > 10 µM

Ac-KTFLDKFNHEAEDLFYS [Seq26]
IC50 ([1]; ACE2:SARS-CoV-2 Spike IC50): 2.1 µM
IC50 ([2]; SARS-CoV-2 Spike:ACE2 IC50): 1.9 µM

STEYQAGST [Seq5]
IC50 ([1]; ACE2:SARS-CoV-2 Spike IC50): > 10 µM
IC50 ([2]; SARS-CoV-2 Spike:ACE2 IC50): > 10 µM

Ac-NMTQGFWENPGGPTAWDLGK [Seq31]
IC50 ([1]; ACE2:SARS-CoV-2 Spike IC50): > 10 µM
IC50 [1, 6]: > 10 µM and 25 µM
IC50 [2, 7]: > 10 µM
IC50 ([2]; SARS-CoV-2 Spike:ACE2 IC50): > 10 µM

SYGFQPTNGV [Seq9]
IC50 ([1]; ACE2:SARS-CoV-2 Spike IC50): > 10 µM
IC50 ([2]; SARS-CoV-2 Spike:ACE2 IC50): > 10 µM

VEGFNCYFP [Seq7]
IC50 ([1]; ACE2:SARS-CoV-2 Spike IC50): > 10 µM
IC50 ([2]; SARS-CoV-2 Spike:ACE2 IC50): > 10 µM

GNYNYLYRL [Seq3]
IC50 ([1]; ACE2:SARS-CoV-2 Spike IC50): > 10 µM
IC50 ([2]; SARS-CoV-2 Spike:ACE2 IC50): > 10 µM

Ac-NMTQGFWENSMLTD [Seq30]
IC50 ([1]; ACE2:SARS-CoV-2 Spike IC50): > 10 µM
IC50 [1, 6]: > 10 µM
IC50 [2, 7]: > 10 µM
IC50 ([2]; SARS-CoV-2 Spike:ACE2 IC50): > 10 µM

Ac-G*NYNYLYRL*-Ava-LWRALWRLWRSLWRLLWK-NH2 [Seq14]
IC50 [1, 4]: > 10 µM
IC50 [2, 5]: > 10 µM

Ac-TAWDLGKGDFRI [Seq29]
IC50 ([1]; ACE2:SARS-CoV-2 Spike IC50): > 10 µM
IC50 [1, 6]: > 10 µM
IC50 [2, 7]: > 10 µM
IC50 ([2]; SARS-CoV-2 Spike:ACE2 IC50): > 10 µM

Ac-EQAKTFLDKFNHEAEDLF [Seq24]
IC50 ([1]; ACE2:SARS-CoV-2 Spike IC50): 0.57 ± 0.03 µM
IC50 ([2]; SARS-CoV-2 Spike:ACE2 IC50): 1.3 µM

GFQPTNGVK [Seq10]
IC50 ([1]; ACE2:SARS-CoV-2 Spike IC50): > 10 µM
IC50 ([2]; SARS-CoV-2 Spike:ACE2 IC50): > 10 µM

Ac-V*EGENCYF*Ava-LWRALWRLWRSLWRLLWK-NH2 [Seq18]
IC50 [1, 4]: > 10 µM
IC50 [2, 5]: > 10 µM

CC(C)[C@H](NC(=O)CNC(=O)[C@H](CC(N)=O)NC(=O)[C@@H](N)CS)C(=O)N[C@@H](CCC(=O)O)C(=O)NCC(=O)N[C@@H](Cc1ccccc1)C(=O)N[C@@H](CC(N)=O)C(=O)N[C@@H](CS)C(=O)O [Seq6] (H-CNGVEGFNC-OH)
IC50 ([1]; ACE2:SARS-CoV-2 Spike IC50): > 10 µM
IC50 ([2]; SARS-CoV-2 Spike:ACE2 IC50): > 10 µM

KVGGNYNYL [Seq2]
IC50 ([1]; ACE2:SARS-CoV-2 Spike IC50): > 10 µM
IC50 ([2]; SARS-CoV-2 Spike:ACE2 IC50): > 10 µM

Ac-KTFLDKFNHEAEDLF [Seq25]
IC50 ([1]; ACE2:SARS-CoV-2 Spike IC50): 1.9 µM
IC50 ([2]; SARS-CoV-2 Spike:ACE2 IC50): 2.5 µM
